Data from ChEMBL document CHEMBL4406879, “A mouse model-based screening platform for the identification of immune activating compounds such as natural products for novel cancer immunotherapies” (Bioorg Med Chem, 2019).
Calls of active or inactive are those of the source. The rule behind the calls is not given here.

What was measured:
[1] = tested on: Bone marrow cell; experiment: Cytotoxicity against GM-CSF-cultured mouse cDC-rich bone marrow cells assessed as cell viability at 1 to 10 uM incubated for 24 hrs by MTT assay; type: cell-based
[2] = tested on: Bone marrow cell; experiment: Cytotoxicity against Flt3L-cultured mouse pDC-rich bone marrow cells assessed as cell viability at 1 to 10 uM incubated for 24 hrs by MTT assay; type: cell-based
[3] = tested on: Bone marrow cell; experiment: Cytotoxicity against M-CSF-cultured mouse macrophage-rich bone marrow cells assessed as cell viability at 1 to 10 uM incubated for 24 hrs by MTT assay; type: cell-based
[4] = tested on: Dendritic cell; experiment: Immunostimulatory activity in GM-CSF-cultured bone marrow-derived dendritic cells isolated from get40 cytokine reporter mouse model assessed as induction of IL12p40 production at 0.1 to 10 uM incubated for 16 hrs in presence of CpG 2216 by flow cytometry relative to control; type: functional
[5] = tested on: Dendritic cell; experiment: Immunostimulatory activity in GM-CSF-cultured bone marrow-derived dendritic cells isolated from get40 cytokine reporter mouse model assessed as induction of IL12p40 production at 0.1 to 10 uM incubated for 16 hrs by flow cytometry relative to control; type: functional
[6] = species on record: Mus musculus; experiment: (§1) Immunostimulatory activity in CD4-positive T cells isolated from OVA-specific OT-II TCR transgenic mouse model assessed as T cell activation by measuring increase in IL-2 production at 10 uM compound incubated with GM-CSF cultured mouse bone marrow cells for 24 hrs followed by addition of isolated CD4+ T cells and further incubation for 5 days by ELISA; type: functional, cell-based
[7] = tested on: Dendritic cell; experiment: Immunostimulatory activity in GM-CSF-cultured bone marrow-derived dendritic cells isolated from get40 cytokine reporter mouse model assessed as induction of IL12p40 production at 0.1 to 10 uM incubated for 16 hrs in presence of LPS by flow cytometry relative to control; type: functional
[8] = tested on: Jurkat; experiment: Cytotoxicity against human Jurkat cells; type: functional, cell-based
[9] = tested on: Ramos; experiment: Cytotoxicity against human Ramos cells; type: functional, cell-based
[10] = tested on: Mycobacterium tuberculosis; experiment: Antibacterial activity against Mycobacterium tuberculosis; type: functional, organism-based
[11] = species on record: Mus musculus; experiment: as §1, with “production at 1 uM compound” for “production at 10 uM compound”, “marrow cells in presence of CpG 2216 for 24” for “marrow cells for 24”; type: functional, cell-based

SMILES: [O-][n+]1ccc2c([nH]c3ccccc32)c1C1=C[C@@]2(O)CC/C=C\CCCCN3CC[C@@H]1[C@]1(CC/C=C\CCCCN[C@H]12)C3
- Activity [1]: Non-Toxic
- Activity [2]: Non-Toxic
- Activity [3]: Non-Toxic
- fold change (FC) [4]: 2
- fold change (FC) [5]: 2
- Activity [6]: inactive
- fold change (FC) [7]: 2
- Activity [8]: Active
- Activity [9]: Active
- Activity [10]: Active

SMILES: C=C1[C@@H](C)[C@H]2[C@H](Cc3ccccc3)NC(=O)[C@]23[C@H](OC(C)=O)/C=C/[C@@](C)(O)C(=O)[C@@H](C)C/C=C/[C@H]3[C@@H]1O [CYTOCHALASIN D]
- Activity [1]: Non-Toxic
- Activity [2]: Non-Toxic
- Activity [3]: Non-Toxic
- fold change (FC) [4]: 2
- fold change (FC) [5]: 2
- Activity [11]: Active
- fold change (FC) [7]: 2
- Activity [8]: Active
- Activity [9]: Active

SMILES: C=C1[C@@H](C)[C@H]2[C@H](Cc3ccccc3)NC(=O)[C@]23[C@H](OC(C)=O)/C=C/[C@@H](C)C[C@@H](C)C/C=C/[C@H]3[C@@H]1O
- Activity [1]: Non-Toxic
- Activity [2]: Non-Toxic
- Activity [3]: Non-Toxic
- fold change (FC) [4]: 2
- fold change (FC) [5]: 2
- Activity [11]: Active
- fold change (FC) [7]: 2
- Activity [8]: Active
- Activity [9]: Active
